The structures appear in SMILES notation. “And” between values parts separate entries of the source, which are not always exact repeats. Identical values can stand only once. Like-named read-outs stand apart in the source and are kept apart here.

One may read the IC50 as the point on the concentration scale where inhibition reaches its midpoint. As a reminder, the inhibition is the share of the control response that was lost under treatment.

The test system of assay [1] is TSLP production in NHBE cells. The assay is described as follows: TSLP HTRF assay (TSLP production in poly I:C / IL-4 stimulated NHBE cells). The format is cell-based, human. More on the design: Inhibition of TSLP production in NHBE (% as indicated): concentration or dose not given beside the values. The method, then:
For dose response curves determinations, stocks of test compounds at a concentration of 1.33x10^-3 M in DMSO were sequentially diluted at 1:4 dilution steps before further 1/50 dilution in BEBM medium containing 1x ITS and 0.1% BSA. For the highest 4 μM concentration test compounds were resuspended in DMSO at a concentration of 2.5x10^-3 M and diluted 1/25 in BEBM medium containing 1x ITS and 0.1% BSA before adding 1 μl to the wells containing the cells.
All subsequent steps were automated using a Sciclone® G3 workstation (Perkin Elmer) with a Twister™ II robot (Perkin Elmer). […] 1 μl of test compound solution prepared at 25x concentration was added to the wells containing NHBE cells. The plates were then incubated during 90 minutes at 37°C, 5% CO2, 90% humidity before adding poly I:C (Invivogen HMW Tirl-pic-5) and human IL-4 (Peprotech 200–04) stimulus in 4 μl of BEBM medium containing 1x ITS, 0.1% BSA and 0.1% DMSO using a Multidrop™. […] Cells were then incubated for 24h in the presence of test compounds and stimulus at 37°C, 5% CO2 and 90% humidity conditions. After the 24h incubation period the plates were transferred to a CyBi®-Well platform (CyBio AG) to collect 10 μl of the supernatants which were transferred to a new plate. TSLP levels in the supernatant were determined using a homogeneous Time-Resolved Fluorescence (HTRF) assay custom developed by Cisbio. The assay was based in the use of a donor dye (europium cryptate) coupled to a monoclonal anti-TSLP antibody and an acceptor dye (d2) coupled to a second polyclonal anti-TSLP antibody. […] 10 μl of the resulting solution was then used to determine TSLP levels as described above.
The standard curve was built with eight points prepared in ITS/BSA in BEBM medium without supplements, starting at 700 pg/ml and diluted 1:2, with medium alone being zero TSLP. Fitting model corresponded to equation 100 of Excel fit software. Data from the primary phenotypic screen was visualized using Vortex (Dotmatics). […] For compound selection the maximum inhibition of the two individual duplicate values was taken into account. Dose response confirmation was performed at single point in the 2 donors tested. 9 point curves were run starting at 4 μM concentration by doing serial 1:4 dilutions in cells derived from both donors.
Background: In TR-FRET formats the signal depends on donor and acceptor labels being close together.

In assay [2] the test system is TBK1/IKKɛ, PDK-1, Aurora B, ERK8, MARK, NUAK1, MLK, c-Kit, CDK2/CyclinE, Chk1, GSK-3β, PKA, KDR, T-Fyn and PCK. Also on record: method as in PMID 19307177. The following applies: read-out: IC50 on BX795 targets within the pharmacological range; cited from earlier work.
A further assay deals with CHO-K1 cells. As to the kind of experiment: CHO-K1 viability (ATPlite). The format is cell-based. The following applies: 3.12 μM. The method, then: The viability of NHBE and CHO-K1 cells was quantified using ATP as an indirect read out of the potential cytotoxicity of the compounds. […] Plates were shaken and covered with aluminium foil for 25 min. Luminescence was measured in an Envision reader (Perkin Elmer). Evaluation of viability in CHO-K1 cells was used as an internal compound cytotoxicity standard across cellular assays. […] The plates were incubated for 24 h at 37°C in 5% CO2. After the incubation period, the culture medium was removed and washed with 100 μl of DPBS. Test compounds were dissolved and serially diluted in 100% DMSO. A final 1/100 dilution of each concentration was performed using F12 culture medium with 0.5% FBS. A volume of 100 μl culture medium containing the compounds or 1% DMSO (for control wells) was added to the wells containing the cells and the plate was incubated again 24h. After 24h of compound exposure, cells were washed with DPBS. Then, 100 μl of PBS were added, followed by the addition of 100 μl of ATPlite™ reagent. The plate was shaken for 25 minutes using a microtiter plate shaker. Luminescence was measured using a Luminoskan Ascent luminometer (Thermo Fisher Scientific).
For CHO-K1 viability assays, a standard curve of cells was included in the plate. Luminescence values versus cell number were plotted and the data adjusted to a linear equation. Luminescence values of the samples were interpolated to obtain number of cells. IC50 values were obtained by non-linear regression using Activity Base software (IDBS) and a four-parameter log equation.

The target of a further assay is T1, mTOR (Homo sapiens, UniProt P42345).
T1 construct: Eurofins Pharma Discovery Services (contract assay service)
The following applies: read-out: reported kinase inhibitory activity (IC50); cited from earlier work.

In assay [3] the test system is TSLP mRNA levels in NHBE cells. The assay is described as follows: TSLP mRNA real-time PCR (qPCR) in NHBE cells. Format: cell-based, human. More on the design: TSLP mRNA upregulation (% versus control) / % Inhibition of mRNA: dose or concentration left out as unconfirmed. Background: In qPCR the cycle at which signal appears reflects the starting amount.
For assay [4], the system named is TSLP production in NHBE cells. As to the kind of experiment: TSLP HTRF assay (TSLP production in poly I:C / IL-4 stimulated NHBE cells). The format is cell-based, human. The following applies: individual values.
[5] abbreviates: 4 μM, NHBE donor #1, average ± SD.

Regarding `O=C(NCCCNc1nc(Nc2cccc(NC(=O)N3CCCC3)c2)ncc1I)c1cccs1` [BX795, reference compound], the IC50 in assay [1] (Homo sapiens, NHBE, donor #1, representative curve, read-out: IC50) is 0.0591 µM; in assay [1] (Homo sapiens, NHBE, donor #2, representative curve, read-out: IC50), 0.079 µM; in assay [1] (individual values, donor #1, read-out: Inhibition of TSLP production in NHBE (IC50, mM) by BX795, Donor #1), 0.048 µM and 0.059 µM and 0.168 µM and 0.177 µM; in assay [1] (individual values, donor #2, read-out: Inhibition of TSLP production in NHBE (IC50, mM) by BX795, Donor #2), 0.198 µM and 0.078 µM and 0.183 µM and 0.143 µM; in assay [2], less than 1 µM.

With `CO[C@H]1C[C@@H]2CC[C@@H](C)[C@@](O)(O2)C(=O)C(=O)N2CCCC[C@H]2C(=O)O[C@H]([C@H](C)C[C@@H]2CC[C@@H](OCCO)[C@H](OC)C2)CC(=O)[C@H](C)/C=C(\C)[C@@H](O)[C@@H](OC)C(=O)[C@H](C)C[C@H](C)/C=C/C=C/C=C/1C` [Everolimus, reference compound], the inhibition at 0.031 µM in assay [1] (Homo sapiens, 0.031 μM, NHBE donor #1, read-out: Inhibition of TSLP protein production % Inhibition ± SD at) was 79.4%. Also, in assay [1] (individual values, donor #1), the “Inhibition of TSLP production in NHBE (% as indicated)” value is 62.23% and 73.18% and 78.84% and 103.38%. For the same molecule, in the assay with CHO-K1 cells, the “Inhibition of CHO viability % Inhibition ± SD at 3.12 μM” value is on record as -0.16% ± 2.3 (n = 4). In addition, the IC50 at mTOR is 0.001 to 0.002 µM.

Take `CC(C)N(C(=O)CN1N=C(c2ccccc2)Cn2c(cc3ccccc32)C1=O)C(C)C` [compound 1]: the “TSLP protein upregulation (% versus control at 4 µM)” value in assay [1] (setting [5]) is 170 ± 62%; in assay [4], 138.531% and 75.145% and 206.844% and 140.02% and 231.867% and 228.515%. Moreover, in assay [3] (setting [5]), the “TSLP mRNA upregulation (% versus control at 4 μM)” value was found to be 452 ± 103%. Further, in assay [3] (individual values), the “TSLP mRNA upregulation (% versus control)” value is 525.82% and 378.87%.

The values are drawn from publication PMC5761851, “Application of a phenotypic drug discovery strategy to identify biological and chemical starting points for inhibition of TSLP production in lung epithelial cells” (PLoS ONE, 2018).
